Assay results: US6403630B1, “Treating cancers associated with overexpression of HER-2/neu” (Cornell Research Foundation, Inc., priority 1999, dated 2002)

What was measured:
[1] = system: HER-2/neu positive colon cancer; experiment: Treatment of a patient after resection of HER-2/neu positive colon cancer; assay type: in vivo, human; conditions: cancer localized to bowel wall, oral Celebrex 400 mg twice a day or Vioxx 50 mg per day for five years
Method: A patient undergoes resection of colon cancer which proves to be HER-2/neu positive. The colon cancer is found to be localized to the bowel wall; there is no evidence of extracolonic cancer. The patient is treated with Celebrex® at oral dose of 400 mg twice a day for five years or an oral dose of Vioxx® at 50 mg per day for five years.

[2] = system: HER-2/neu positive breast cancer; experiment: Adjuvant therapy of a patient with HER-2/neu positive breast cancer; assay type: in vivo, human
Method: A patient with HER-2/neu positive breast cancer is treated with Celebrex® for adjuvant therapy at an oral dose of 400 mg twice a day for five years after a mastectomy. […] The same result is obtained when the Celebrex® is replaced with an oral dose of 50 mg per day of Vioxx® for five years.
The patient also received an oral dose of 400 mg Celebrex® twice daily for one year or an oral dose of 50 mg Vioxx® daily for one year.

[3] = system: HER-2/neu positive breast cancer that has metastasized; experiment: Treatment of a patient with metastasized HER-2/neu positive breast cancer; assay type: in vivo, human
Method: Breast cancer is determined to have metastasized to lung and liver three years after a mastectomy is performed on a patient with HER-2/neu positive breast cancer. The patient is treated with oral doses of Celebrex® of 400 mg twice a day or of Vioxx® of 50 mg per day.
After three months, the Celebrex® or Vioxx® was continued in combination regimen with Taxol® at a dose of 175 mg/m^2 administered intravenously every three weeks.
Breast cancer is determined to have metastasized to bone nine years after a mastectomy is performed on a patient with HER-2/neu positive breast cancer.
After 90 days, oral cyclophosphamide at a dose of 3 mg/kg/day and doxoribicin administered intravenously weekly at a dose of 20 mg/m^2, are added to the drug regimen.

COX-2 in 184B5/HER cells = experiment: Amounts of COX-2 in 184B5/HER cells after treatment with MAP kinase inhibitors; assay type: cell-based, human
Text: The cells used were 184B5 and 184B5/HER cell lines. They were obtained from a collaborator. The 184B5 cell line is an immortalized but nontumorogenic human breast epithelial cell line that was established from a reduction mammoplasty and is described in Stampfer, M. R., et al., Proc. Natl. Acad. Sci. USA 82, 2394-2398 (1985). The 184B5/HER cell line was derived by stably transfecting 184B5 cells with a mutationally activated human HER-2/neu oncogene; these cells form rapidly growing tumors when injected into athymic nude mice. The 184B5/HER cell line is described in Pierce, J. H., et al., Oncogene 6, 1189-1194(1991). Cells were maintained in MEM (from Life Technologies, Inc. of Grand Island, N.Y.)—KBM, i.e., kerotinocyte basal medium (from Clonetics Corp. of San Diego, Calif.), mixed in a ratio of 1:1. […]
Western blotting was carried out to determine whether the differences in PGE2 production were related to differences in amounts of COX enzymes. […] The protein concentration of the supernatant was measured as described in Lowry, O. H., et al., J. Biol. Chem. 193, 265-275 (1951). […]
The activity of p44/42 MAP kinase was measured using a nonradioactive method where the assay was performed with a p44/42 MAP kinase activity kit obtained from New England Biolabs (of Beverly, Mass.) using the manufacturer's instructions. […]

[4] = adjuvant therapy alone, oral, five years after a mastectomy (Celebrex 400 mg twice a day; Vioxx 50 mg per day)
[5] = adjuvant therapy with HERCEPTIN (250 mg IV loading, 10 weekly 125 mg IV), oral Celebrex 400 mg twice daily or Vioxx 50 mg daily for one year
[6] = metastasized to bone, after failure of prior chemotherapy, oral Celebrex 400 mg twice a day or Vioxx 50 mg per day plus HERCEPTIN
[7] = metastasized to bone, after 90 days oral cyclophosphamide 3 mg/kg/day and weekly IV doxorubicin 20 mg/m^2 added to the COX-2 inhibitor plus HERCEPTIN regimen
[8] = metastasized to lung and liver, after three months continued in combination with Taxol 175 mg/m^2 IV every three weeks
[9] = metastasized to lung and liver, oral Celebrex 400 mg twice a day or Vioxx 50 mg per day alone

For `Cc1ccc(-c2cc(C(F)(F)F)nn2-c2ccc(S(N)(=O)=O)cc2)cc1` [Celebrex®, 4-[5-(4-Methylphenyl)-3-(trifluoromethyl)-1H-pyrazol-1-yl]benzenesulfonamide], the “Recurrence of colon cancer” value [1] was “does not occur”, the “Recurrence of breast cancer” value [2, 4] was “does not occur” and the “Recurrence of breast cancer” value [2, 5] was “does not occur”. The tumor burden [3, 6] was “reduced tumor burden”, the tumor burden [3, 7] was “still further reduced tumor burden” and the tumor burden [3, 8] was “further reduced tumor burden”. The tumor burden [3, 9] was “reduced tumor burden”.
For `COc1cccc(-c2cc(=O)c3ccccc3o2)c1N` [PD 98059, 2′-amino-3′-methoxyflavone], the “amounts of COX-2” value (COX-2 in 184B5/HER cells) was “decrease”.
`Oc1ccc(-c2nc(-c3ccc(F)cc3)c(-c3ccncc3)[nH]2)cc1` [SB 202190, 4-(4-fluorophenyl)-2-(4-hydroxyphenyl)-5-(4-pyridyl)-1H-imidazole] was tested, and the “amounts of COX-2” value (COX-2 in 184B5/HER cells) was “down-regulated”.
In the case of `CS(=O)(=O)c1ccc(C2=C(c3ccccc3)C(=O)OC2)cc1` [Vioxx®, 3-(Phenyl)-4-(4-(methylsulfonyl)phenyl)-2-(5H)-furanone], the “Recurrence of colon cancer” value [1] is reported as “does not occur”, the “Recurrence of breast cancer” value [2, 4] is reported as “does not occur” and the “Recurrence of breast cancer” value [2, 5] is reported as “does not occur”. The tumor burden [3, 6] was “reduced tumor burden”, the tumor burden [3, 7] was “still further reduced tumor burden” and the tumor burden [3, 8] was “further reduced tumor burden”. For the same compound, the tumor burden [3, 9] was “reduced tumor burden”.
